# Publication PMC9562916, “Investigation of the Phenolic Component Bioavailability Using the In Vitro Digestion/Caco-2 Cell Model, as well as the Antioxidant Activity in Chinese Red Wine” (Foods, 2022)
# Where two headings read alike, the source gives them in different places. Marks after values point to notes of the source that are not given here.
# Columns and labels:
# [1] = Caco-2 transepithelial transport assay of digested red wine; assay type: in vitro ADME, human; details: human, Caco-2, apical to basolateral
# Experimental: (§1) Caco-2 cells were inoculated following the method of Hubatsch et al. […] Briefly, a 5% v/v of CO2 incubator at 37 °C was used to house the cells. […] Caco-2 cells were sub-cultured when they reached 80-90% of the adherent growth by treating them with a 0.05% v/v of trypsin-EDTA solution. The culture between passages 35 and 40 was used for the following experiment. Transport experiments were performed according to the method of Wu et al. with slight modifications. First, 1.0 × 10^5 Caco-2 cells were inoculated onto 12 mm transparent cell culture plates (Transwell). Media were carefully injected into the apical (0.5 mL) and basolateral (1.5 mL) sides of the Transwell plates. The cell culture medium had to be replaced every other day until the cells formed a monolayer. The integrity and transport ability of the Caco-2 cell monolayer were evaluated by measuring the trans-epithelial electrical resistance (TEER) with a MilliCell voltammeter (Millicell ERS-2, Merck Millipore, Billerica, MA, USA). […] When the cell activity exceeded 0.9, a transport experiment was conducted. The apical side was injected with a digested red wine sample (0.5 mL) and was thoroughly mixed with […] Balanced Salt Solution (HBSS) buffer solution. […] The cells were then cultured in a 37 °C, 5% CO2 incubator. Then, 0.25 mL samples were separately taken from the basolateral side of the monolayer. An equal volume of HBSS buffer was then added every half hour from the beginning of the culture until the end of the culture at 6 h. The collected samples were subsequently filtered and placed in the sample bottle for further HPLC analysis. This experiment was repeated several times to collect enough samples for the next antioxidant test. […] The Agilent 1100 series HPLC instrument was used; it was equipped with a degasser, quaternary pump solvent delivery, a DAD system, and a single quadrupole mass detector coupled with an electrospray ionization LC-MS interface. […] The column temperature was kept at 30 °C, the injection volume was 10 μL, and the flow rate was 0.3 mL/min. The eluents were water and formic acid in a 99:1 (v/v) (A) ratio and 100% acetonitrile (B). The gradient elution procedure was as follows: (1) 3% B solvent at 0 min, (2) 3 to 16% B solvent at 10 min, (3) 16 to 20% B solvent at 30 min, and (4) 20% B solvent maintained until the procedure was completed. The MS configuration was as follows: ESI, negative ion mode, nebulizer pressure of 30 psi, a dry gas flow rate of 10 mL/min, dry gas temperature of 350 °C, and a scan rate of 100~1200 m/z. PCs were determined according to their retention times, UV/VIS spectra, and high-resolution MS spectra, in addition to a comparison with the standards. […] If a standard was unavailable, a structurally related compound was used. Putative annotations were made using spectral features and literature information on the chromatographic properties and mass spectra records from the metabolome database. A standard curve was drawn using methanol solutions with different concentrations as the standards. […] PCs All of the samples were determined in triplicate.
# [2] = test system: Caco-2 cell monolayer; test: as above; assay type: in vitro ADME, human; details: digested sample, basolateral side of Caco-2 monolayer
# Experimental: as §1
# [3] = PC content of red wine before and after in vitro simulated gastrointestinal digestion (HPLC); assay type: in vitro ADME
# Experimental: The digestion procedure was carried out by adapting the method of Brodkorb et al. and Gómez et al.. […] One milliliter (50 units/mL) of porcine amylase was prepared in a 15 mM Na₃PO₄ buffer solution (pH adjusted to 6.8) containing 1.5 mM CaCl2, and it was added to the red wine solution. After 5 min, 4.5 mL of 0.12 M HCl was added to the mixture to adjust the pH to 2.4. One milliliter of porcine pepsin (0.02 mg/L) was dissolved in a 20 mM HCl solution. The mixture was then maintained at 37 °C for 120 min. The digestion mixture was then centrifuged at 8000× g for 15 min to obtain samples from the gastric digestion phase. […] The mixture was incubated at pH 6.5 at 37 °C for 3 h before being centrifuged. The extracts of the intestinal phase were the supernatants. The same operation was done three times, and each sample was stored in a refrigerator (−20 °C) immediately for further analysis.
# The Pati method was adopted, with slight modifications, to measure the content of the PCs. The Agilent 1100 series HPLC instrument was used; it was equipped with a degasser, quaternary pump solvent delivery, a DAD system, and a single quadrupole mass detector coupled with an electrospray ionization LC–MS interface. Briefly, th samples were injected into a Zorbax SB C18 reversed-phase column (5 µm,150 × 2.1 mm, Agilent Technologies, Santa Clara, CA, USA) using an autosampler after filtering through 0.45 µm cellulose acetate syringe filters. The column temperature was kept at 30 °C, the injection volume was 10 µL, and the flow rate was 0.3 mL/min. The eluents were water and formic acid in a 99:1 (v/v) (A) ratio and 100% acetonitrile (B). […] The MS configuration was as follows: ESI, negative ion mode, nebulizer pressure of 30 psi, a dry gas flow rate of 10 mL/min, dry gas temperature of 350 °C, and a scan rate of 100~1200 m/z. PCs were determined according to their retention times, UV/VIS spectra, and high-resolution MS spectra, in addition to a comparison with the standards. […] Putative annotations were made using spectral features and literature information on the chromatographic properties and mass spectra records from the metabolome database. A standard curve was drawn using methanol solutions with different concentrations as the standards. The limits of detection and quantitation were calculated according to the signal-to-noise ratio (limit of detection: signal-to-noise ratio ≥ 3; limit of quantitation: signal-to-noise ratio ≥ 10). […] PCs All of the samples were determined in triplicate.
smiles,measurement,setting,value
O=c1c(O[C@@H]2O[C@H](CO)[C@@H](O)[C@H](O)[C@H]2O)c(-c2ccc(O)c(O)c2)oc2cc(O)cc(O)c12 [Isoquercetin],Papp at 6 h,"[1]; digested Cabernet red wine, read-out: Apparent Permeability Coefficients, Cabernet",3.84 ± 0.29 ×10⁻⁶ cm/s
same,Papp at 6 h,"[1]; digested Helanshan red wine, read-out: Apparent Permeability Coefficients, Helanshan",3.73 ± 0.27 ×10⁻⁶ cm/s
same,Papp at 6 h,"[1]; digested Tianzhu red wine, read-out: Apparent Permeability Coefficients, Tianzhu",3.87 ± 0.23 ×10⁻⁶ cm/s
same,"PC Contents, Cabernet, Transmembrane",[2]; Cabernet red wine,0.83 ± 0.04 ^a mg/L
same,"PC Contents, Helanshan, Transmembrane",[2]; Helanshan red wine,0.72 ± 0.04 ^a mg/L
same,"PC Contents, Tianzhu, Transmembrane",[2]; Tianzhu red wine,3.81 ± 0.18 ^a mg/L
same,"PC Contents, Cabernet, After Digestion","[3]; Cabernet red wine, after simulated gastrointestinal digestion",13.46 ± 0.59 ^b mg/L
same,"PC Contents, Helanshan, After Digestion","[3]; Helanshan red wine, after simulated gastrointestinal digestion",12.01 ± 0.37 ^b mg/L
same,Increase in content after digestion,"[3]; Tianzhu red wine, after digestion vs undigested",9.8%
same,"PC Contents, Tianzhu, After Digestion","[3]; Tianzhu red wine, after simulated gastrointestinal digestion",19.13 ± 0.69 ^b mg/L
